Patent US8889704B2 (Array BioPharma Inc., priority 2011, dated 2014)
Structures can show the parent of a compound that is named as a salt.

Assays:
Assay type in all cases: biochemical
PIM-1 = PIM-1 (Homo sapiens, UniProt P11309); experiment: Enzyme PIM-1 Assay ([33P]ATP incorporation into PIM2tide, filter plate); settings: averaged IC50; 35 μM ATP, 7.5 μM PIM2tide, 0.25 nM PIM-1, 60 min at 22° C.
Method in brief: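 Ten-point, 3-fold dilution series (10 μM top, 2% DMSO final) tested for inhibition of 33P transfer from 35 μM ATP to 7.5 μM PIM2tide by 0.25 nM PIM-1. Reaction 60 min, 22 °C, pH 7.4 MOPS/MgCl2 buffer; phosphocellulose capture, scintillation counting, IC50 where fitted POC equals 50.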

[1] = biological target: T1, GST-tagged recombinant full-length human Pim-2 (Homo sapiens, UniProt Q9P1W9); experiment: PIM-2 Assay (as Example A); settings: averaged IC50; 4 μM ATP, 1.0 μM PIM2tide, 1.5 nM Pim-2
T1 construct: GST-tagged recombinant full-length human Pim-2; GST
Method in brief: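 IC50 was derived by 4-parameter logistic fitting of percent-of-control data over a 10-point, 3-fold series (highest 10 μM, 2% DMSO). Reactions held 1.5 nM GST-Pim-2 (full-length, human), 4 μM [γ-33P]ATP and 1.0 μM PIM2tide for 60 min at 22 °C, pH 7.4; 33P-peptide captured on P81 filters.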

recombinant rat PIM-3 = recombinant rat PIM-3 (Rattus norvegicus, UniProt O70444); experiment: PIM-3 Assay (as Example A); settings: averaged IC50; 30 μM ATP, 3.75 μM PIM2tide, 0.5 nM PIM-3
Method in brief: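 33P incorporation from 30 μM [γ-33P]ATP into 3.75 μM PIM2tide by 0.5 nM rat PIM-3, 60 min at 22 °C in pH 7.4 MOPS buffer, read by P81 filter capture and scintillation counting. Compounds tested in 3-fold dilutions up to 10 μM final, 2% DMSO; percent-of-control data fitted by 4-parameter logistic for IC50.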

T1 sequence (Q9P1W9 whole entry): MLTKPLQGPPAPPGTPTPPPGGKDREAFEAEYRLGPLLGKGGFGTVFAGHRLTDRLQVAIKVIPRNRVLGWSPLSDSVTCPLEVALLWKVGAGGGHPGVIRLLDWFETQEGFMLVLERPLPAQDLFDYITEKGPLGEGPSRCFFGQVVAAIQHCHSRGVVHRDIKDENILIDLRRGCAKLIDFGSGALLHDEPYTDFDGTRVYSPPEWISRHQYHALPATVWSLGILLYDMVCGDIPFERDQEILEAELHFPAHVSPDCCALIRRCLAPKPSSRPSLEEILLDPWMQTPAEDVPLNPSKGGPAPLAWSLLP
PIM-1, sequence (P11309 whole entry, species assumed): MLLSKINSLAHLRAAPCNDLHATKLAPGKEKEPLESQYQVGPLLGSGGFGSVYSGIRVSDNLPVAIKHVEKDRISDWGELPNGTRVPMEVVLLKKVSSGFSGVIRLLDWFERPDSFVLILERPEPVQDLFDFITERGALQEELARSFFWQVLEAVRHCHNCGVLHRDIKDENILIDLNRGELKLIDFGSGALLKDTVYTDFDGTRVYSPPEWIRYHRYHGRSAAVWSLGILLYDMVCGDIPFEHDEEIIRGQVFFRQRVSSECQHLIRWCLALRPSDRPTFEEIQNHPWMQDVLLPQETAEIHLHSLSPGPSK

SMILES	IC50 (PIM-1)	IC50 [1]	IC50 (recombinant rat PIM-3)
CC1Cc2c(ccc3ccc(-c4nnc5ccc([C@@H](N6CC[C@H](N)C6)C(F)(F)F)cn45)nc23)O1 (stereo partly drawn) [Example 144, (3S)-1-((1R)-2,2,2-trifluoro-1-(3-(8-methyl-8,9-dihydrofuro[2,3-h]quinolin-2-yl)-[1,2,4]triazolo[4,3-a]pyridin-6-yl)ethyl)pyrrolidin-3-amine dihydrochloride]	0.95 nM	48 nM	1 nM
Cn1cc(-c2ccc3ccc(-c4nnc5ccc([C@H](N6CCC(C)(O)C6)C(F)(F)F)cn45)nc3c2)cn1 (single isomer, unassigned; diastereomer 1) [Example 200]	1.86 nM	137 nM	3.4 nM
CC(C)N[C@H]1CCN([C@H](c2ccc3nnc(-c4ccc5cccc(O[C@H](C)CO)c5n4)n3c2)C(F)(F)F)C1 [Example 231, dihydrochloride]	0.88 nM	429 nM	3.5 nM
CC(C)(C)c1cccc2ccc(-c3nnc4ccc([C@@H](N5C[C@@H](N)[C@@H](O)C5)C(F)(F)F)cn34)nc12 [Example 130, (3S,4R)-4-amino-1-((R)-1-(3-(8-tert-butylquinolin-2-yl)-[1,2,4]triazolo[4,3-a]pyridin-6-yl)-2,2,2-trifluoroethyl)pyrrolidin-3-ol dihydrochloride]	9.03 nM	756 nM	28 nM
COCCOc1ccc2ccc(-c3nnc4ccc([C@@H](N5C[C@@H](N)[C@H](OC)C5)C(F)(F)F)cn34)nc2c1 [Example 318, (3R,4R)-4-methoxy-1-((R)-2,2,2-trifluoro-1-(3-(7-(2-methoxyethoxy)quinolin-2-yl)-[1,2,4]triazolo[4,3-a]pyridin-6-yl)ethyl)pyrrolidin-3-amine]	0.94 nM	218 nM	0.8 nM
N[C@@H]1CCN([C@@H](c2ccc3nnc(-c4ccc5cccc(OCC6CC6)c5n4)n3c2)C(F)(F)F)C1 (single isomer, unassigned) [Example 23]	2.85 nM	412 nM	38 nM
CC(=O)N[C@H]1CCN(C(c2ccc3nnc(-c4ccc5cccc(OCC6CC6)c5n4)n3c2)C(F)(F)F)C1 (stereo partly drawn) [Example 50, N-((3S)-1-(1-(3-(8-(cyclopropylmethoxy)quinolin-2-yl)-[1,2,4]triazolo[4,3-a]pyridin-6-yl)-2,2,2-trifluoroethyl)pyrrolidin-3-yl)acetamide]	4.88 nM	> 100 nM	41 nM
COc1cc2nc(-c3nnc4ccc([C@@H](N5CC[C@H](N)C5)C(F)(F)F)cn34)ccc2cc1C [Example 138, (S)-1-((R)-2,2,2-trifluoro-1-(3-(7-methoxy-6-methylquinolin-2-yl)-[1,2,4]triazolo[4,3-a]pyridin-6-yl)ethyl)pyrrolidin-3-amine hydrochloride]	2.03 nM	> 100 nM	9.5 nM
COc1cc2nc(-c3nnc4ccc([C@@H](N5C[C@@H](N)[C@@H](O)C5)C(F)(F)F)cn34)ccc2cc1F [Example 131, (3S,4R)-4-amino-1-((R)-2,2,2-trifluoro-1-(3-(6-fluoro-7-methoxyquinolin-2-yl)-[1,2,4]triazolo[4,3-a]pyridin-6-yl)ethyl)pyrrolidin-3-ol dihydrochloride]	2.18 nM	787 nM	17 nM
COC[C@@H](C)Oc1cccc2ccc(-c3nnc4ccc(C(C)N5CC[C@H](N)C5)cn34)nc12 (stereo partly drawn) [Example 33, (3S)-1-(1-(3-(8-((R)-1-methoxypropan-2-yloxy)quinolin-2-yl)-[1,2,4]triazolo[4,3-a]pyridin-6-yl)ethyl)pyrrolidin-3-amine trihydrochloride]	1.41 nM	759 nM	5.9 nM
CCOc1cc2nc(-c3nnc4ccc([C@@H](C)N5CC[C@H](N)C5)cn34)ccc2cc1F [Example 309, (S)-1-((R)-1-(3-(7-ethoxy-6-fluoroquinolin-2-yl)-[1,2,4]triazolo[4,3-a]pyridin-6-yl)ethyl)pyrrolidin-3-amine trihydrochloride]	1.18 nM	407 nM	3 nM
COc1cccc2ccc(-c3nnc4ccc(C(N5CCCC5)C(F)(F)F)cn34)nc12 (stereo not drawn) [Example 6, 8-methoxy-2-(6-(2,2,2-trifluoro-1-(pyrrolidin-1-yl)ethyl)-[1,2,4]triazolo[4,3-a]pyridin-3-yl)quinoline]	11.1 nM	> 1000 nM	> 100 nM

Stronger by IC50 (PIM-1), values ahead:

IC50 (PIM-1)	IC50 [1]	IC50 (recombinant rat PIM-3)	SMILES
0.14 nM	16 nM	2.4 nM	N[C@@H]1CCN([C@@H](c2ccc3nnc(-c4ccc5cccc(C6CC6)c5n4)n3c2)C(F)(F)F)C1 [Example 56, (R)-1-((S)-1-(3-(8-cyclopropylquinolin-2-yl)-[1,2,4]triazolo[4,3-a]pyridin-6-yl)-2,2,2-trifluoroethyl)pyrrolidin-3-amine]
0.64 nM	> 1000 nM	8 nM	Cc1cc(-c2ccc3ccc(-c4nnc5ccc([C@@H](N6CC[C@H](N)C6)C(F)(F)F)cn45)nc3c2C)n(C)n1 [Example 213, (3S)-1-((1R)-1-(3-(7-(1,3-dimethyl-1H-pyrazol-5-yl)-8-methylquinolin-2-yl)-[1,2,4]triazolo[4,3-a]pyridin-6-yl)-2,2,2-trifluoroethyl)pyrrolidin-3-amine]
0.3 nM	111 nM	1 nM	CC(C)Oc1cccc2ccc(-c3nnc4ccc([C@@H](N5CC[C@](N)(CO)C5)C(F)(F)F)cn34)nc12 [Example 188, ((R)-3-amino-1-((R)-2,2,2-trifluoro-1-(3-(8-isopropoxyquinolin-2-yl)-[1,2,4]triazolo[4,3-a]pyridin-6-yl)ethyl)pyrrolidin-3-yl)methanol dihydrochloride]
0.41 nM	67 nM	0.6 nM	CC(C)(C)NC(=O)c1ccc2ccc(-c3nnc4ccc([C@@H](N5CC[C@@H](N)C5)C(F)(F)F)cn34)nc2c1 [Example 54, 2-(6-((R)-1-((R)-3-aminopyrrolidin-1-yl)-2,2,2-trifluoroethyl)-[1,2,4]triazolo[4,3-a]pyridin-3-yl)-N-tert-butylquinoline-7-carboxamide dihydrochloride]
0.11 nM	36 nM	0.3 nM	CC(C)Oc1cc(F)cc2ccc(-c3nnc4ccc([C@@H](N5C[C@@H](N)[C@H](O)C5)C(F)(F)F)cn34)nc12 [Example 147, (3R,4R)-4-amino-1-((R)-2,2,2-trifluoro-1-(3-(6-fluoro-8-isopropoxyquinolin-2-yl)-[1,2,4]triazolo[4,3-a]pyridin-6-yl)ethyl)pyrrolidin-3-ol dihydrochloride]
0.6 nM	> 1000 nM	3.3 nM	COCCOc1ccc2ccc(-c3nnc4ccc([C@@H](N5CC[C@](C)(N)C5)C(F)(F)F)cn34)nc2c1 [Example 261, (S)-3-methyl-1-((R)-2,2,2-trifluoro-1-(3-(7-(2-methoxyethoxy)quinolin-2-yl)-[1,2,4]triazolo[4,3-a]pyridin-6-yl)ethyl)pyrrolidin-3-amine dihydrochloride]
0.19 nM	79 nM	3 nM	C[C@@]1(N)CCN([C@H](c2ccc3nnc(-c4ccc5cccc(C6CC6)c5n4)n3c2)C(F)(F)F)C1 [Example 95, (R)-1-((R)-1-(3-(8-cyclopropylquinolin-2-yl)-[1,2,4]triazolo[4,3-a]pyridin-6-yl)-2,2,2-trifluoroethyl)-3-methylpyrrolidin-3-amine dihydrochloride]
0.75 nM	> 100 nM	4.1 nM	N[C@H]1CCN([C@H](c2ccc3nnc(-c4ccc5cccc(Cl)c5n4)n3c2)C(F)(F)F)C1 [Example 182, (S)-1-((R)-2,2,2-trifluoro-1-(3-(8-chloroquinolin-2-yl)-[1,2,4]triazolo[4,3-a]pyridin-6-yl)ethyl)pyrrolidin-3-amine dihydrochloride]
0.7 nM	> 100 nM	1.4 nM	COc1ccc2ccc(-c3nnc4ccc([C@@H](N5CC[C@H](N)C5)C(F)(F)F)cn34)nc2c1Cl [Example 175, (S)-1-((R)-1-(3-(8-chloro-7-methoxyquinolin-2-yl)-[1,2,4]triazolo[4,3-a]pyridin-6-yl)-2,2,2-trifluoroethyl)pyrrolidin-3-amine hydrochloride]
0.23 nM	180 nM	0.4 nM	CC(C)(O)COc1ccc2ccc(-c3nnc4ccc([C@@H](N5CC[C@H](N)C5)C(F)(F)F)cn34)nc2c1 [Example 278, 1-(2-(6-((R)-1-((S)-3-aminopyrrolidin-1-yl)-2,2,2-trifluoroethyl)-[1,2,4]triazolo[4,3-a]pyridin-3-yl)quinolin-7-yloxy)-2-methylpropan-2-ol dihydrochloride]
0.22 nM	68 nM	0.4 nM	CC(C)NC(=O)c1ccc2ccc(-c3nnc4ccc([C@@H](N5CC[C@@H](N)C5)C(F)(F)F)cn34)nc2c1 [Example 49, 2-(6-((R)-1-((R)-3-aminopyrrolidin-1-yl)-2,2,2-trifluoroethyl)-[1,2,4]triazolo[4,3-a]pyridin-3-yl)-N-isopropylquinoline-7-carboxamide dihydrochloride]
